Kd data for four substances are collected here from paper PMC4520770 (Journal of molecular biology, 2015).

No end group written: not given here. Some results are limits rather than exact numbers.

The target in one test is BHRF1 (Epstein-Barr virus, UniProt P03182). Kind of test: biochemical. It counts as binding, Epstein-Barr herpesvirus (EBV).
Another test concerns the target KSBcl-2 (Human herpesvirus 8 type P, UniProt F5HGJ3). Kind of test: biochemical. It counts as binding, Kaposi's sarcoma-associated herpesvirus (KSHV).
The target of the next test is Mcl-1 (Homo sapiens, UniProt Q07820). In words: Direct fluorescence anisotropy binding to Mcl-1.
Sequence of Mcl-1 (Q07820 whole entry): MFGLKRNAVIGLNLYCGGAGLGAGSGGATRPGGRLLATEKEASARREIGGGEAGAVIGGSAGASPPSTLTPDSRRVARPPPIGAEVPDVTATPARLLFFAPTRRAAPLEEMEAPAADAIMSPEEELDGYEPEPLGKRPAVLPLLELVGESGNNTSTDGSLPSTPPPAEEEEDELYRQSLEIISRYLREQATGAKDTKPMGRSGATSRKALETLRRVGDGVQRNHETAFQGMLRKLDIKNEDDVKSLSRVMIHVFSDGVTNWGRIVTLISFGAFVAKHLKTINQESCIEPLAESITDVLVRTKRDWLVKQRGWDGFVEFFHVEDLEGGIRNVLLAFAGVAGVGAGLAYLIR

Sequence of BHRF1 (P03182 whole entry): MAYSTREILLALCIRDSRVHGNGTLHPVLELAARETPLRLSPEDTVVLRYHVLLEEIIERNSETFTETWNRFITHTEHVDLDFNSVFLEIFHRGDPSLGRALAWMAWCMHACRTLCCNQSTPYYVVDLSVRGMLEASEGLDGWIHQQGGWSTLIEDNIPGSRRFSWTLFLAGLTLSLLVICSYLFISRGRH
Sequence of KSBcl-2 (F5HGJ3 whole entry): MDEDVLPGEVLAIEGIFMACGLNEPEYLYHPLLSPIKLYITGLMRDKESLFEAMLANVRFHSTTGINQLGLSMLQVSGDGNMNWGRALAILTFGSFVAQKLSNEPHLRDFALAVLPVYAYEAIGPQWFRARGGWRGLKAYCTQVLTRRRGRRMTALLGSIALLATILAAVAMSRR

Regarding “RPQIWIHQGLQRLGAGLNAYYAR-NH2 [KL6-7_D3fA]”, the Kd at BHRF1 is above 1000 nM; at KSBcl-2, 180 ± 80 nM; on Mcl-1 it was above 5000 nM.
As for “RPQIWIHQGLQRLGDGLNAYKAR-NH2 [KL6-7_Y4eK]”, the results for the dissociation constant (Kd) at BHRF1, at KSBcl-2 and on Mcl-1 were above 1000 nM, 2.9 ± 1.3 nM and around 7800 nM, respectively.
For RPNIWLTQRLQRTGDGLNAYYAR-NH2 [KScomp] the same measures were above 1000 nM, 13 ± 7.3 nM and 510 ± 190 nM.
With “RPIIWIGQEISRVGDRENAYKAR-NH2 [BL6-22_Y4eK]”, the Kd is 30 ± 17 nM at BHRF1, 750 ± 300 nM on KSBcl-2 and around 2200 nM at Mcl-1.
